Laboratory results: US20260337156A1, “SOLUBILIZING COMPOUNDS” (Vivesto AB, priority 2022, published 2026)

Key:
Assay type in all cases: physicochemical
[1] = appearance of the hydrated drug formulation; settings: formulation with docetaxel
Procedure: 3.8 mg of compound 1 was dispensed into a 25 mL round bottom flask and dissolved in methanol (2 mL). 240 μL of a stock solution of docetaxel in methanol (5 mg/mL) was added.
(§1) The solution was evaporated to dryness in a rotary evaporator. Final drying was performed in a desiccator to remove residual solvent. Hydration of the dried film was performed by adding water for injection (1.2 mL). […] Drug loading capacity is defined as the ratio of amount API:(API+excipient).
(§2) 11 mg of example 1 was dispensed into a 25 mL round bottom flask and dissolved in methanol (2 mL). 740 μL of a stock solution of docetaxel in methanol (4.96 mg/mL) was added. The solution was evaporated to dryness in a rotary evaporator. Final drying was performed in a desiccator to remove residual solvent.
as §2, with “4.5” for “11”, “compound” for “example”, “1500” for “740”, “cabazitaxel” for “docetaxel”, “(1.00” for “(4.96”
as §2, with “4.5” for “11”, “compound” for “example”, “1500” for “740”, “cyclosporin” for “docetaxel”, “(1.00” for “(4.96”, “solvent. […]” for “solvent.”
4.5 mg of compound 4 was dispensed into a round bottom flask and dissolved in methanol (3 mL). […] of a stock solution of docetaxel in methanol (4.96 mg/mL) was added. The solution was evaporated to dryness in a rotary evaporator. Final drying was performed in a desiccator (40 min) to remove residual solvent. Rehydration of the dried film was performed by adding 0.9% sodium chloride solution (1.5 mL).

[2] = drug loading capacity (ratio of amount API:(API+excipient)); settings: docetaxel 1.25 mg + compound 4.0 mg
Procedure: as §1
(§3) 20 mg of example 1 was dispensed into a 25 mL round bottom flask and dissolved in methanol (3 mL). 800 μL of a stock solution of docetaxel in methanol (5 mg/mL) was added. The solution was evaporated to dryness in a rotary evaporator. Final drying was performed in a desiccator to remove residual solvent. Hydration of the dried film was performed by adding water for injection (1.0 mL) to a concentration of 4 mg/mL of docetaxel. The 4 mg/mL concentration was further diluted with 0.9% sodium chloride according to the table below.
as §2
as §2, with “4.5” for “11”, “compound” for “example”, “1500” for “740”, “cabazitaxel” for “docetaxel”, “(1.00” for “(4.96”
as §2, with “4.5” for “11”, “compound” for “example”, “1500” for “740”, “cyclosporin” for “docetaxel”, “(1.00” for “(4.96”
4.0 mg of compound 2 was dispensed into a 25 mL round bottom flask and dissolved in methanol (3 mL). 250 μL of a stock solution of docetaxel in methanol (5 mg/mL) was added. The solution was evaporated to dryness in a rotary evaporator. Final drying was performed in a desiccator to remove residual solvent. Hydration of the dried film was performed by adding water for injection (1.25 mL). […]
as §2, with “4.5” for “11”, “compound 3” for “example 1”, “(3” for “(2”, “305” for “740”
as §2, with “4.5” for “11”, “compound 3” for “example 1”, “(3” for “(2”, “[…]” for “740”

[3] = micellar particle size and polydispersity index (ZetaSizer, dynamic light scattering) of drug formulations at different dilutions; settings: micelles with docetaxel
Procedure: The particle size of the micelles in the composition is typically in the range of about 5 to about 150 nm. The particle size may be determined e.g. using Dynamic Light Scattering (DLS) in 0.9% NaCl at 1 mg/mL drug concentration, preferably using a red laser with a wavelength of 633 nm.
Micellar size was measured using a ZetaSizer from Malvern Panalytical. […]
as §3, with “below. […]” for “below.”
(§4) A serial dilution was performed for the system docetaxel:compound 1. A stock solution of docetaxel in methanol was mixed with a stock solution of the micelle forming agent (compound 1) in a round bottom flask at a weight ratio of 1:5. The mixture was evaporated to dryness in a rotary evaporator. Final drying was performed in a desiccator to remove residual solvent. Hydration of the dried film was performed by adding water for injection (1.0 mL) to a concentration of 1 mg/mL of docetaxel. The resulting solution was filtered through a 0.22 μm sterile filter and further diluted with 0.9% sodium chloride solution.
as §2, with “4.5” for “11”, “compound” for “example”, “1500” for “740”, “cabazitaxel” for “docetaxel”, “(1.00” for “(4.96”, “solvent. […]” for “solvent.”

[4] = particle size and polydispersity index of drug micelles over time (ZetaSizer); settings: docetaxel:compound 1:5, docetaxel 0.5 mg/mL
Procedure: Micellar size was measured using a ZetaSizer from Malvern Panalytical.
as §4, with “A” for “A serial dilution was performed for the system docetaxel:compound 1. A”, “compound 1” for “the micelle forming agent (compound 1)”, “flask.” for “flask at a weight ratio of 1:5.”, “solution to 0.5 mg/mL of docetaxel. […]” for “solution.”
(§5) A stock solution of cyclosporin in methanol was mixed with a stock solution of compound 1 in a round bottom flask. The mixture was evaporated to dryness in a rotary evaporator. Final drying was performed in a desiccator to remove residual solvent. Hydration of the dried film was performed by adding water for injection (1.0 mL) to a concentration of 1 mg/mL of cyclosporin. The resulting solution was filtered through a 0.22 μm sterile filter and further diluted with 0.9% sodium chloride solution to 0.5 mg/mL of cyclosporin. The final weight ratio of cyclosporin to micelle forming agent was 1:3.
(§6) A stock solution of docetaxel in methanol was mixed with a stock solution of compound 3 in a round bottom flask. The mixture was evaporated to dryness in a rotary evaporator. Final drying was performed in a desiccator to remove residual solvent. Hydration of the dried film was performed by adding water for injection (1.0 mL) to a concentration of 1 mg/mL of docetaxel. The resulting solution was filtered through a 0.22 μm sterile filter and further diluted with 0.9% sodium chloride solution to 0.5 mg/mL of Docetaxel. The final weight ratio of docetaxel to micelle forming agent was 1:3.
as §5, with “compound 3” for “compound 1”
as §6, with “4” for “3”, “docetaxel. […]” for “Docetaxel. The final weight ratio of docetaxel to micelle forming agent was 1:3.”
as §6, with “compound 5” for “compound 3”, “of docetaxel.” for “of Docetaxel.”
A stock solution of cabazitaxel in methanol was mixed with a stock solution of compound 5 in a round bottom flask. The mixture was evaporated to dryness in a rotary evaporator. Final drying was performed in a desiccator to remove residual solvent. Hydration of the dried film was performed by adding water for injection (1.0 mL) to a concentration of 1 mg/mL of cabazitaxel. […]

[5] = 1.25 mg docetaxel + 4.0 mg compound, water 1.25 mL, mixed 1:1 v/v with 0.9% NaCl
[6] = ratio 3:1, 0.9% NaCl, docetaxel conc. 0.25 mg/mL
[7] = ratio 3:1, 0.9% NaCl, docetaxel conc. 0.5 mg/mL
[8] = ratio 3:1, 0.9% NaCl, docetaxel conc. 1 mg/mL

COc1cc(C)c(/C=C/C(C)=C/C=C/C(C)=C/C(=O)N(CCCS(=O)(=O)[O-])C2CCCCC2)c(C)c1C.[Na+] [Compound 2]
appearance of formulation [1]: yellow transparent solution | Drug loading capacity [2]: 24% | Particle size [3, 5]: 17.9 nm | Polydispersity index [3, 5]: 0.72

COc1cc(C)c(/C=C/C(C)=C/C=C/C(C)=C/C(=O)N(CC(O)CS(=O)(=O)[O-])C2CCCCC2)c(C)c1C.[Na+] (stereo not drawn) [Compound 4]
appearance of formulation [1]: yellow transparent solution | change of particle size and polydispersity index over time ([4]; 0-24 h): Increase in the particle size and variations of the polydispersity index over time were noted | Particle size ([4]; time 0 h): 34.56 nm | Polydispersity index ([4]; time 0 h): 0.26 | Particle size ([4]; time 1 h): 54.37 nm | Polydispersity index ([4]; time 1 h): 0.14 | Particle size ([4]; time 2 h): 56.46 nm | Polydispersity index ([4]; time 2 h): 0.12 | Particle size ([4]; time 4 h): 58.90 nm | Polydispersity index ([4]; time 4 h): 0.11 | Particle size ([4]; time 6 h): 59.79 nm | Polydispersity index ([4]; time 6 h): 0.12 | Particle size ([4]; time 24 h): 78.72 nm | Polydispersity index ([4]; time 24 h): 0.08 | Particle size [3, 6]: 8.7 nm | Polydispersity index [3, 6]: 0.31 | Particle size [3, 7]: 8.9 nm | Polydispersity index [3, 7]: 0.25 | Particle size [3, 8]: 8.9 nm | Polydispersity index [3, 8]: 0.32
